This passage reports IC50 results from US11638707B2, “Substituted amino triazoles useful as chitinase inhibitors” (Molecure S.A., priority 2019, dated 2023).

Where a name gives a salt, the structure may show the parent alone. Some results are limits rather than exact numbers.

Data set [1] has as its target recombinant human CHIT1 (Homo sapiens (Human), UniProt Q13231). The data set is described as follows: Human CHIT1 activity assay. The data set is classed as biochemical. Particulars: recombinant human CHIT1, citrate buffer pH 5.2, 37° C., 60 minutes; read-out: hCHIT1, IC50. An outline of the steps: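 Recombinant human CHIT1 hydrolysed 4-methylumbelliferyl β-D-N,N′,N″-triacetylchitotriose in citrate buffer, pH 5.2, for 60 minutes at 37° C in the dark with shaking. Released 4MU was read by fluorescence at 460 nm under basic pH; IC50 values were calculated from dilution series.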

For data set [2], the target named is hERG channel (Homo sapiens (Human), UniProt Q12809). Put plainly: Human ERG channel binding assay (fluorescence polarization). The settings on record: Table 1; tracer displacement, 4 h at room temperature. In a few lines:
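Serially diluted compounds were incubated with a hERG-containing membrane fraction and a high-affinity red-shifted fluorescent hERG ligand. Displacement of the tracer was read by fluorescence polarization, and IC50 values were derived from the concentration-response curves.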
Background: Polarisation of emitted light reports the rotation of a fluorescent probe.

For data set [3], the target named is recombinant human AMCase (Homo sapiens (Human), UniProt Q9BZP6). Put plainly: Human AMCase activity assay. The data set is classed as biochemical. The settings on record: citrate buffer pH 5.2, 37° C., 60 minutes, read-out: hAMCase, IC50. An outline of the steps: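 Recombinant hAMCase hydrolysed 4-methylumbelliferyl β-D-N,N′-diacetylchitobioside in citrate buffer pH 5.2, run 60 min at 37 °C in the dark with shaking. Released 4MU fluorescence was read at 460 nm under basic pH, and IC50 values were fitted from the compound dilutions.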
recombinant human AMCase, sequence (Q9BZP6 22-476): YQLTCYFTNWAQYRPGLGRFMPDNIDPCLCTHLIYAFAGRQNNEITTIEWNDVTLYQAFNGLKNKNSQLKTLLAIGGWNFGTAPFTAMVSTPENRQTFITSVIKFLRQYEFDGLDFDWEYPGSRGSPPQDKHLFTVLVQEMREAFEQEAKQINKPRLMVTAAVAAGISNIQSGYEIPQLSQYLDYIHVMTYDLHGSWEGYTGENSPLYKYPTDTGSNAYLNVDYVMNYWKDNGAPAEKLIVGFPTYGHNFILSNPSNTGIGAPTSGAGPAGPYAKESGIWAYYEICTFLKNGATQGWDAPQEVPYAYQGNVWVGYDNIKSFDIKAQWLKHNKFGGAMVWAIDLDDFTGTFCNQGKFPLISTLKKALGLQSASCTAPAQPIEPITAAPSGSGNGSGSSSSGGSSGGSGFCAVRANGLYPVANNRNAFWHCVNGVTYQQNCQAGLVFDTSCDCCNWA

By IC50 is commonly meant the concentration that gives 50% inhibition.

recombinant human CHIT1, sequence (Q13231 22-466): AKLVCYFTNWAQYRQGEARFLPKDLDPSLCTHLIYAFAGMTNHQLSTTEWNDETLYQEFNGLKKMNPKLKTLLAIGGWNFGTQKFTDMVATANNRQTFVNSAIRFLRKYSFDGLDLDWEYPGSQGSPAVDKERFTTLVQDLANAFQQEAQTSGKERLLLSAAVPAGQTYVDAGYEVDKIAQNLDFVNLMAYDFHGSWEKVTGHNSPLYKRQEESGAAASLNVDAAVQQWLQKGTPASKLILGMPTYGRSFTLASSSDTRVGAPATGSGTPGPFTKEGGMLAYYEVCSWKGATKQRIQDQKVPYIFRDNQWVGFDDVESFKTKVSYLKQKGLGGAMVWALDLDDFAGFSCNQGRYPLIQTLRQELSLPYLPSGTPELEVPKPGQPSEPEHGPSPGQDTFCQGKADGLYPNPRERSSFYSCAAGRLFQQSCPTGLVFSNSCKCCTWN
hERG channel, sequence (Q12809 whole entry): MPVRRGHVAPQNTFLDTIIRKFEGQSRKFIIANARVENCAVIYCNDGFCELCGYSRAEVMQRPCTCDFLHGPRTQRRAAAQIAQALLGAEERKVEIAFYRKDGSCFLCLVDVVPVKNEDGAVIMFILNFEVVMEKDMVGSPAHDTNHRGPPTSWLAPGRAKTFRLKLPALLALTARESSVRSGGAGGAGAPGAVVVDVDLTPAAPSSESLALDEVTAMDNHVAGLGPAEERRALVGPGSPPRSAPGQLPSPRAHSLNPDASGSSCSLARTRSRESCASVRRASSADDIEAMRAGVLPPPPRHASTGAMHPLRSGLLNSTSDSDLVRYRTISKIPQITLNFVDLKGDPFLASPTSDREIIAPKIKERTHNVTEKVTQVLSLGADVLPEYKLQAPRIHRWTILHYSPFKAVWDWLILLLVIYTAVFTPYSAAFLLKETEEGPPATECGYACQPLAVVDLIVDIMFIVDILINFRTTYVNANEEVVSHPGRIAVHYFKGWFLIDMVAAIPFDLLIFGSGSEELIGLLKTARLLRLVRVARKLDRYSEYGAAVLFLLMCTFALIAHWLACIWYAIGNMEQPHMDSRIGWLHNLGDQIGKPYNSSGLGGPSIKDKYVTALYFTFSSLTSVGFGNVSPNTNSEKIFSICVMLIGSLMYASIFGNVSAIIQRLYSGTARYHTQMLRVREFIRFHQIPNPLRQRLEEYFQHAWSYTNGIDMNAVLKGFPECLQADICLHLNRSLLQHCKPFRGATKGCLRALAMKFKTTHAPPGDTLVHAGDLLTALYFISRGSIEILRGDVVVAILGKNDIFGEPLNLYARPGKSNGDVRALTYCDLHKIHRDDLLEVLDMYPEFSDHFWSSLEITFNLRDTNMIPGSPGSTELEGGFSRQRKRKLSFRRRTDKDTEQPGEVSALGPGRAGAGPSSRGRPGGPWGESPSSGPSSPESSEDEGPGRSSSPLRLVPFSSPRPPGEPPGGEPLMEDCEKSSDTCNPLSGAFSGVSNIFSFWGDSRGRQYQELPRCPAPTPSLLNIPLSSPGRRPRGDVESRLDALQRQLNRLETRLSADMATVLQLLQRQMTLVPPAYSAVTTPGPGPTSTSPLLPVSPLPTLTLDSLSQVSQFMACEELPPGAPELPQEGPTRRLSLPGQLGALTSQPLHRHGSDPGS

Take `Nc1nnc(N2CCC(N3C[C@@H]4COCCN4C[C@@H]3Cc3ccc(Cl)cc3)CC2)[nH]1` [Example 73, 5-(4-((7S,9aR)-7-(4-chlorobenzyl)hexahydropyrazino[2,1-c][1,4]oxazin-8(1H)-yl)piperidin-1-yl)-4H-1,2,4-triazol-3-amine hydrochloride]: the values for the IC50 in data set [1], in data set [2] and in data set [3] were 100 to 1000 nM, 1000 to 10000 nM and less than 100 nM, respectively.

With `C[C@H]1CN(C2CCN(c3nnc(N)[nH]3)CC2)[C@@H](Cc2ccc(Br)cc2)CO1` [Example 75, 5-(4-((2S,5S)-5-(4-bromobenzyl)-2-methylmorpholino)piperidin-1-yl)-4H-1,2,4-triazol-3-amine 2,2,2-trifluoroacetate], the half-maximal inhibitory concentration (IC50) is less than 100 nM in data set [1], 1000 to 10000 nM in data set [2] and less than 100 nM in data set [3].

With `Nc1nnc(N2CCC(N3C[C@H](CF)OC[C@@H]3Cc3ccc(Br)cc3)CC2)[nH]1` [Example 76, 5-(4-((2R,5S)-5-(4-bromobenzyl)-2-(fluoromethyl)morpholino)piperidin-1-yl)-4H-1,2,4-triazol-3-amine 2,2,2-trifluoroacetate], the IC50 is less than 100 nM in data set [1], greater than 100000 nM in data set [2] and less than 100 nM in data set [3].

For the compound `Nc1nnc(N2CCC(N3C[C@@H]4CC(F)(F)CN4C[C@@H]3Cc3ccc(C(F)(F)F)cc3)CC2)[nH]1` [Example 78, 5-(4-((3S,8aS)-7,7-difluoro-3-(4-(trifluoromethyl)benzyl)hexahydropyrrolo[1,2-a]pyrazin-2(1H)-yl)piperidin-1-yl)-4H-1,2,4-triazol-3-amine 2,2,2-trifluoroacetate], the IC50 was less than 100 nM in data set [1], 10000 to 25000 nM in data set [2] and less than 100 nM in data set [3].
